This is an account of results in patent publication US4396613A, “23-Ester derivatives of DMT and method of using same” (Eli Lilly and Company, priority 1981, dated 1983).

Format in all cases: cell-based
The test system of assay [1] is Streptococcus pneumoniae Park I. The settings on record: agar dilution, unit assumed. Here is the method:
(§1) The MIC's in Table II were determined by standard agar-dilution assays. The MIC's in Table III were obtained using a conventional broth-dilution microtiter test.
Background: In agar dilution the substance is mixed into plates at graded concentrations.

In assay [2] the test system is Mycoplasma synoviae. In words: conventional broth-dilution microtiter test (MIC). To be noted: unit assumed. How it is done: as §1
Assay [3] deals with Pasteurella multocida 17E. In words: conventional broth-dilution microtiter test (MIC). The settings on record: bovine isolate, unit assumed. How it is done:
as §1

Assay [4] deals with Mycoplasma hyorhinis. The assay can be described thus: conventional broth-dilution microtiter test (MIC). The settings on record: unit assumed. Here is the method:
as §1

The test system of assay [5] is Pasteurella multocida 60A. The assay can be described thus: conventional broth-dilution microtiter test (MIC). To be noted: avian isolate, unit assumed. How it is done:
as §1

Assay [6] concerns Mycoplasma gallisepticum. In words: conventional broth-dilution microtiter test (MIC). The settings on record: unit assumed. Here is the method:
as §1

The subject of assay [7] is Streptococcus sp. 80. In words: conventional broth-dilution microtiter test (MIC). The settings on record: unit assumed. Here is the method:
as §1

Assay [8] relates to Staphylococcus aureus. In words: conventional broth-dilution microtiter test (MIC). The settings on record: unit assumed. How it is done:
as §1

Assay [9] has as its system Haemophilus influenzae Holt. The assay can be described thus: standard agar-dilution assay (MIC). To be noted: ampicillin-sensitive strain, unit assumed. How it is done:
as §1

In assay [10] the test system is Haemophilus influenzae R252. In words: standard agar-dilution assay (MIC). The settings on record: Haemophilus influenzae R252, ampicillin-resistant strain, unit assumed. How it is done: as §1
For assay [11], the system named is Staphylococcus aureus X1.1. In words: standard agar-dilution assay (MIC). To be noted: unit assumed. How it is done: as §1
Assay [12] relates to Streptococcus Group D X66. The assay can be described thus: standard agar-dilution assay (MIC). The settings on record: unit assumed. Here is the method: as §1
For assay [13], the system named is Staphylococcus aureus S13E. The assay can be described thus: standard agar-dilution assay (MIC). To be noted: unit assumed. Here is the method:
as §1

Assay [14] deals with Staphylococcus epidermidis EPI2. The assay can be described thus: standard agar-dilution assay (MIC). The settings on record: unit assumed. Here is the method:
as §1

Assay [15] has as its system Streptococcus Group 9960. In words: standard agar-dilution assay (MIC). To be noted: unit assumed. How it is done: as §1
Assay [16] relates to Streptococcus pyogenes C203. The assay can be described thus: standard agar-dilution assay (MIC). To be noted: unit assumed. Here is the method: as §1
Assay [17] relates to Staphylococcus epidermidis EPI1. In words: standard agar-dilution assay (MIC). The settings on record: unit assumed. How it is done:
as §1

In assay [18] the test system is Staphylococcus aureus X400. The assay can be described thus: standard agar-dilution assay (MIC). To be noted: Staphylococcus aureus X400, methicillin-resistant strain, unit assumed. How it is done: as §1
^c Methicillinresistant-strain

Assay [19] relates to Staphylococcus aureus V41. The assay can be described thus: standard agar-dilution assay (MIC). The settings on record: Staphylococcus aureus V41, penicillin-resistant strain, unit assumed. Here is the method:
as §1
^b Penicillinresistant strain

The structures appear in SMILES notation. Converted amounts (≈) assume the structure as drawn.

With `CCC1OC(=O)CC(O)C(C)C(OC2OC(C)C(OC3CC(C)(O)C(O)C(C)O3)C(N(C)C)C2OC(C)=O)C(CC=O)CC(C)C(=O)C=CC(C)=CC1COC(=O)C12CC3CC(CC(C3)C1)C2` (centres unmarked) [Compound 23], the MIC in [1] was 1 µg/mL (≈ 1.06 µM); in [2] it was 1.56 µg/mL (≈ 1.65 µM); in [3], 50 µg/mL (≈ 52.8 µM); in [4] it was 25 µg/mL (≈ 26.4 µM); in [5] it was greater than 50 µg/mL; in assay [6] it was 6.25 µg/mL (≈ 6.61 µM). The MIC in [7] is less than 0.78 µg/mL; in assay [8], 6.25 µg/mL (≈ 6.61 µM); in assay [9], greater than 128 µg/mL; in assay [10] it was greater than 128 µg/mL; in [11] it was 2 µg/mL (≈ 2.11 µM); in assay [12], 4 µg/mL (≈ 4.23 µM). Moreover, the MIC in assay [13] was found to be 2 µg/mL (≈ 2.11 µM); in assay [14], 4 µg/mL (≈ 4.23 µM); in assay [15], 4 µg/mL (≈ 4.23 µM); in assay [16] it was 2 µg/mL (≈ 2.11 µM); in assay [17], 2 µg/mL (≈ 2.11 µM); in assay [18], 2 µg/mL (≈ 2.11 µM). Moreover, the MIC in [19] stood at 2 µg/mL (≈ 2.11 µM).
Consider `CCC1OC(=O)CC(O)C(C)C(OC2OC(C)C(OC3CC(C)(O)C(O)C(C)O3)C(N(C)C)C2O)C(CC=O)CC(C)C(=O)C=CC(C)=CC1COC(=O)NCCCCCCCCN` (centres unmarked) [Compound 27], for which the MIC was 0.25 µg/mL (≈ 0.274 µM) in assay [1]; 3.12 µg/mL (≈ 3.42 µM) in assay [2]; 25 µg/mL (≈ 27.4 µM) in assay [3]; 3.12 µg/mL (≈ 3.42 µM) in [4]; 50 µg/mL (≈ 54.8 µM) in assay [5]; 0.78 µg/mL (≈ 0.855 µM) in assay [6]. Besides, the MIC stood at 0.78 µg/mL (≈ 0.855 µM) in assay [7]; 6.25 µg/mL (≈ 6.85 µM) in [8]; 32 µg/mL (≈ 35.1 µM) in assay [9]; 32 µg/mL (≈ 35.1 µM) in assay [10]; 2 µg/mL (≈ 2.19 µM) in [11]; 4 µg/mL (≈ 4.39 µM) in assay [12]. Besides, the MIC was 4 µg/mL (≈ 4.39 µM) in assay [13]; 4 µg/mL (≈ 4.39 µM) in assay [14]; 4 µg/mL (≈ 4.39 µM) in [15]; 1 µg/mL (≈ 1.1 µM) in assay [16]; 2 µg/mL (≈ 2.19 µM) in [17]; 8 µg/mL (≈ 8.77 µM) in [18]. The compound further came in with an MIC in assay [19] of 2 µg/mL (≈ 2.19 µM).
As for `CCC1OC(=O)CC(O)C(C)C(OC2OC(C)C(OC3CC(C)(O)C(O)C(C)O3)C(N(C)C)C2OC(=O)Cc2ccccc2)C(CC=O)CC(C)C(=O)C=CC(C)=CC1COC(=O)Cc1ccccc1` (centres unmarked) [Compound 17], the MIC in assay [1] was determined as 0.125 µg/mL (≈ 0.128 µM); in assay [2], 1.56 µg/mL (≈ 1.59 µM); in assay [3], 6.25 µg/mL (≈ 6.39 µM); in assay [4], 6.25 µg/mL (≈ 6.39 µM); in assay [5] it was 25 µg/mL (≈ 25.6 µM); in assay [6] it was 0.78 µg/mL (≈ 0.797 µM). For the same compound, the MIC in [7] was 0.78 µg/mL (≈ 0.797 µM); in assay [8] it was 0.78 µg/mL (≈ 0.797 µM); in assay [9] it was greater than 128 µg/mL; in [10], greater than 128 µg/mL; in [11], 1 µg/mL (≈ 1.02 µM); in [12], 1 µg/mL (≈ 1.02 µM). For the same compound, the MIC was 1 µg/mL (≈ 1.02 µM) in [13]; 1 µg/mL (≈ 1.02 µM) in assay [14]; 1 µg/mL (≈ 1.02 µM) in [15]; 0.5 µg/mL (≈ 0.511 µM) in [16]; 1 µg/mL (≈ 1.02 µM) in assay [17]; 2 µg/mL (≈ 2.04 µM) in assay [18]. For the same compound, the MIC in [19] came out at 1 µg/mL (≈ 1.02 µM).
In the case of `CCC(=O)OC1C(OC2C(CC=O)CC(C)C(=O)C=CC(C)=CC(COC(C)=O)C(CC)OC(=O)CC(O)C2C)OC(C)C(OC2CC(C)(O)C(O)C(C)O2)C1N(C)C` (centres unmarked) [Compound 6, 23-O-Acetyl-2'-O-propionyl-DMT], the MIC was determined as 0.125 µg/mL (≈ 0.149 µM) in [1]; 0.195 µg/mL (≈ 0.232 µM) in assay [2]; 6.25 µg/mL (≈ 7.44 µM) in [3]; 0.78 µg/mL (≈ 0.929 µM) in assay [4]; 12.5 µg/mL (≈ 14.9 µM) in assay [5]; 0.39 µg/mL (≈ 0.464 µM) in assay [6]. The MIC in assay [7] came out at 0.39 µg/mL (≈ 0.464 µM); in assay [8] it was 0.78 µg/mL (≈ 0.929 µM); in [9], 16 µg/mL (≈ 19 µM); in [10], 16 µg/mL (≈ 19 µM); in assay [11], 0.5 µg/mL (≈ 0.595 µM); in [12], 1 µg/mL (≈ 1.19 µM). Also, the MIC in assay [13] was determined as 1 µg/mL (≈ 1.19 µM); in assay [14], 1 µg/mL (≈ 1.19 µM); in [15], 1 µg/mL (≈ 1.19 µM); in assay [16], 0.5 µg/mL (≈ 0.595 µM); in assay [17], 1 µg/mL (≈ 1.19 µM); in assay [18] it was 2 µg/mL (≈ 2.38 µM). This compound showed an MIC in [19] of 0.5 µg/mL (≈ 0.595 µM).
Consider `CCC1OC(=O)CC(O)C(C)C(OC2OC(C)C(OC3CC(C)(O)C(O)C(C)O3)C(N(C)C)C2OC(C)=O)C(CC=O)CC(C)C(=O)C=CC(C)=CC1COC(=O)C(C)(C)C` (centres unmarked) [Compound 8], for which the MIC in assay [1] came out at 0.06 µg/mL (≈ 0.0691 µM); in assay [2], 0.39 µg/mL (≈ 0.449 µM); in assay [3] it was 12.5 µg/mL (≈ 14.4 µM); in assay [4] it was 3.12 µg/mL (≈ 3.59 µM); in [5], 12.5 µg/mL (≈ 14.4 µM); in assay [6] it was 0.39 µg/mL (≈ 0.449 µM). Moreover, the MIC in [7] was greater than 0.78 µg/mL; in assay [8], 3.12 µg/mL (≈ 3.59 µM); in assay [9] it was 16 µg/mL (≈ 18.4 µM); in [10], 4 µg/mL (≈ 4.61 µM); in [11], 0.5 µg/mL (≈ 0.576 µM); in assay [12] it was 0.5 µg/mL (≈ 0.576 µM). Also, the MIC in assay [13] came to 0.5 µg/mL (≈ 0.576 µM); in [14], 1 µg/mL (≈ 1.15 µM); in assay [15], 0.5 µg/mL (≈ 0.576 µM); in assay [16] it was 0.25 µg/mL (≈ 0.288 µM); in assay [17] it was 0.5 µg/mL (≈ 0.576 µM); in [18], 1 µg/mL (≈ 1.15 µM). In addition, in assay [19], the MIC came to 0.5 µg/mL (≈ 0.576 µM).
